Test results published in EPA's ToxValDB 9.5.
≈ marks a conversion by molar mass, not a printed value. Where “and” joins values, the source holds several entries; their conditions need not be identical. Identical values can stand only once.

Legend:
Oryctolagus sp. = conditions: for LD50: acute, dermal
Rattus norvegicus = conditions: for LC50 / LD50: acute
Mus musculus = conditions: inhalation; for LC50: acute
[1] = developmental, duration: 14 days, oral, gavage, Wistar
[2] = short-term, duration: 12 days, inhalation, F, Crl:CD1
[3] = short-term, duration: 28 days, oral, gavage, Wistar
[4] = chronic, duration: 693 days, oral, diet, Sprague-Dawley
[5] = reproduction developmental, duration: 94 days, oral, diet, Sprague-Dawley, generation: F0
[6] = subchronic, duration: 13 weeks, oral, diet, Sprague-Dawley
[7] = reproduction developmental, duration: 5 days, CD1, generation: F0
[8] = reproduction developmental, duration: 13 days, oral, gavage, F, New Zealand

C1OCOCO1 [1,3,5-Trioxane]
LD50 (Oryctolagus sp.): > 3980 mg/kg | LC50 (Rattus norvegicus; inhalation): > 39200 mg/m3 | LD50 (Rattus norvegicus; oral, gavage): 8190 mg/kg | LOAEL (Rattus norvegicus; [1]): 315 mg/kg-day | NOAEL (Rattus norvegicus; [1]): 100 mg/kg-day | LOAEL (Rattus norvegicus; reproduction developmental, duration: 14 days, oral, gavage, F, Wistar): 100 mg/kg-day | LOAEL (Rattus norvegicus; [2]): 3630 mg/m3 | NOAEL (Rattus norvegicus; [2]): 379 mg/m3 | LOAEL (Rattus norvegicus; [3]): 1000 mg/kg-day | NOAEL (Rattus norvegicus; [3]): 200 mg/kg-day

O=c1n(CC2CO2)c(=O)n(CC2CO2)c(=O)n1CC1CO1 (configuration not stated) [Tris(2,3-epoxypropyl)isocyanurate]
LC50 (Rattus norvegicus; Inhalation, TIF: RAIF (SPF)): > 300 mg/m3 | LC50 (Rattus norvegicus; Inhalation, Tif.RAIF (SPF)): 650 mg/m3 | LD50 (Rattus norvegicus; dermal, Sprague-Dawley): > 3100 mg/kg | LD50 (Rattus norvegicus; dermal, semiocclusive, Sprague-Dawley): > 2000 mg/kg | LD50 (Rattus norvegicus; dermal, semiocclusive, TIF. RAIF (SPF)): > 2000 mg/kg | LC50 (Rattus norvegicus; inhalation, particle, Wistar): > 4.16 µg/mL | LD50 (Rattus norvegicus; oral, gavage, Sprague-Dawley): 447 mg/kg | LD50 (Rattus norvegicus; oral, gavage, TIF: RAIF (SPF)): 305 mg/kg | LOAEL (Rattus norvegicus; [4]): > 100 mg/kg-day | NOAEL (Rattus norvegicus; [4]): 100 mg/kg-day | LOAEL (Rattus norvegicus; [5]): > 100 mg/kg-day | NOAEL (Rattus norvegicus; [5]): 30 mg/kg-day | LOAEL (Rattus norvegicus; [6]): > 100 mg/kg-day | NOAEL (Rattus norvegicus; [6]): 30 mg/kg-day | LC50 (Mus musculus; particle, CD1): 2 µg/mL (≈ 6.73 µM) | LOAEL (Mus musculus; [7]): > 8 mg/m3 | NOAEL (Mus musculus; [7]): > 8 mg/m3

CCCCCCCC/C=C/CCCCCCCCN.F [9-Octadecen-1-amine, hydrofluoride]
LOAEL (Oryctolagus sp.; [8]): 1.2 mg/kg-day | NOAEL (Rattus norvegicus; reproduction developmental, oral, gavage, Long-Evans, generation: F0): 6 mg/kg-day | NOAEL (Rattus norvegicus; reproduction developmental, oral, gavage, Long-Evans, generation: F1): 30 mg/kg-day

CCNc1cccc(C)c1 [N-Ethyl-3-methylaniline]
LD50 (Oryctolagus sp.; New Zealand): > 2000 mg/kg | LC50 (Rattus norvegicus; inhalation): 2.4 µg/mL (≈ 17.8 µM) | LD50 (Rattus norvegicus; oral, Sprague-Dawley): 787 mg/kg and 478 mg/kg | LD50 (Rattus norvegicus; oral, gavage, Wistar): 650 mg/kg | NOAEL (Rattus norvegicus; short-term, duration: 2 weeks, inhalation, Sprague-Dawley): 31 mg/m3

CN(C)CCN(C)C [N,N,N',N'-Tetramethylethylenediamine]
LD50 (Oryctolagus sp.; New Zealand): 1230 mg/kg | LC50 (Rattus norvegicus; inhalation): > 5610 mg/m3 | LC50 (Rattus norvegicus; inhalation, Sprague-Dawley): > 5610 mg/m3 | LC50 (Rattus norvegicus; inhalation, Wistar): 6260 mg/m3

CCCCCCCCCCCCCCCCCCOP1OCC2(CO1)COP(OCCCCCCCCCCCCCCCCCC)OC2 (configuration not stated) [Distearyl pentaerythritol diphosphite]
LD50 (Oryctolagus sp.; New Zealand): > 2000 mg/kg | LD50 (Rattus norvegicus; oral, gavage, Sherman Wistar): > 10000 mg/kg | NOAEL (Rattus norvegicus; subchronic, duration: 90 days, oral, diet, Sprague-Dawley): > 288 mg/kg-day

C=CF [Vinyl fluoride]
LOAEL (Rattus norvegicus; subchronic, duration: 90 days, inhalation, Crl:CDABR): 377 mg/m3 | LC50 (Mus musculus): 1.3e+06 mg/m3 | LOAEL (Mus musculus; subchronic, duration: 90 days, Crl:CD-1 (ICR) BR): 377 mg/m3

CCCCCCCCCCCCCCCCCCN(C)CCCCCCCCCCCCCCCCCC [Distearylmethylamine]
LD50 (Oryctolagus sp.; occlusive, New Zealand): > 2000 mg/kg | LD50 (Rattus norvegicus; oral, gavage, Sprague-Dawley): > 5000 mg/kg | LD50 (Rattus norvegicus; oral, gavage, Wistar): > 2000 mg/kg | LOAEL (% diet) (Rattus norvegicus; [6]): 0.15

CCCCNC(=O)OCC#CI [3-Iodo-2-propynyl-N-butylcarbamate]
NOAEL (Oryctolagus sp.; [8]): 20 mg/kg-day | NOAEL (Oryctolagus sp.; reproduction developmental, duration: 13 days, oral, gavage, New Zealand, generation: F1): 50 mg/kg-day | NOAEL (Oryctolagus sp.; subchronic, duration: 90 days, oral, diet, New Zealand): 16.5 mg/kg-day | LD50 (Rattus norvegicus; oral, gavage, Sprague-Dawley): 1800 mg/kg and 1470 mg/kg and 1060 mg/kg

CC1COC(=O)O1 (configuration not stated) [Propylene carbonate]
LD50 (Oryctolagus sp.; occlusive, New Zealand): > 3000 mg/kg | LD50 (Rattus norvegicus; oral, Sprague-Dawley): > 5000 mg/kg | NOAEL (Rattus norvegicus; developmental, duration: 6 days, oral, gavage, Sprague-Dawley): 5000 mg/kg-day | NOAEL (Rattus norvegicus; reproduction developmental, duration: 13 weeks, oral, gavage, Sprague-Dawley, generation: F0): 5000 mg/kg-day | NOAEL (Rattus norvegicus; reproduction developmental, duration: 13 weeks, oral, gavage, Sprague-Dawley, generation: F1): 5000 mg/kg-day | NOAEL (Rattus norvegicus; reproduction developmental, duration: 13 weeks, oral, gavage, Sprague-Dawley, generation: F2): 5000 mg/kg-day | NOAEL (Rattus norvegicus; reproduction developmental, duration: 93 days, inhalation, generation: F0): 1000 mg/m3 | NOAEL (Rattus norvegicus; reproduction developmental, duration: 93 days, inhalation, generation: F1): 1000 mg/m3 | NOAEL (Rattus norvegicus; reproduction developmental, duration: 93 days, inhalation, generation: F2): 1000 mg/m3 | NOAEL (Rattus norvegicus; subchronic, duration: 90 days, oral, gavage, Sprague-Dawley): 5000 mg/kg-day

C=C(C#N)C(=O)OCC [Ethyl cyanoacrylate]
LD50 (Oryctolagus sp.; occlusive, New Zealand): > 2000 mg/kg | LC50 (Rattus norvegicus; inhalation, Wistar): < 21.1 µg/mL | LD50 (Rattus norvegicus; oral, gavage): > 5000 mg/kg

CC(CO)CO [2-Methylpropane-1,3-diol]
LD50 (Oryctolagus sp.; New Zealand): > 2000 mg/kg | NOAEL (Oryctolagus sp.; reproduction developmental, duration: 28 days, oral, gavage, F, New Zealand): 1000 mg/kg-day | NOAEL (Oryctolagus sp.; reproduction developmental, duration: 28 days, oral, gavage, New Zealand, generation: F1): 1000 mg/kg-day | LC50 (Rattus norvegicus; Inhalation, Wistar): > 5100 mg/m3 | LD50 (Rattus norvegicus; oral, gavage, Wistar): > 5000 mg/kg | NOAEL (Rattus norvegicus; developmental, duration: 20 days, oral, gavage, Wistar): 1000 mg/kg-day | NOAEL (Rattus norvegicus; reproduction developmental, duration: 20 days, oral, gavage, F, Wistar): 1000 mg/kg-day | NOAEL (Rattus norvegicus; reproduction developmental, duration: 20 days, oral, gavage, Wistar, generation: F1): 1000 mg/kg-day | NOAEL (Rattus norvegicus; reproduction developmental, duration: 90 days, oral, gavage, Wistar, generation: F0): 1000 mg/kg-day | NOAEL (Rattus norvegicus; short-term, duration: 14 days, oral, gavage, Wistar): 1000 mg/kg-day | NOAEL (Rattus norvegicus; subchronic, duration: 90 days, oral, gavage, Wistar): 1000 mg/kg-day
